Measurements published in US20250230193A1, “CYCLIC COMPOUND HAVING SELECTIVE KRAS INHIBITORY EFFECT ON HRAS AND NRAS” (CHUGAI SEIYAKU KABUSHIKI KAISHA, priority 2022, published 2025).
Where a SMILES comes first, the peptide text is derived from it. Bridges are numbered along the chain shown (N, C = ends). [ ]: non-standard residue; d: D form. The star is where a group is joined. hPhe(3,5-F2-4-CF3) = N[C@@H](CCc1cc(F)c(C(F)(F)F)c(F)c1)C(=O)O; NPrPhe(4-CF3) = CCCN[C@@H](Cc1ccc(C(F)(F)F)cc1)C(=O)O; NMeGly(cPent) = CN[C@H](C(=O)O)C1CCCC1; NMeD = CN[C@@H](CC(=O)O)C(=O)O; NMeL = CN[C@@H](CC(C)C)C(=O)O; αMeS = C[C@](N)(CO)C(=O)O; Morpholide = C1CN(*)CCO1; Aze = O=C(O)[C@@H]1CCN1; Sar = CNCC(=O)O; tBu = CC(C)(C)*

Legend:
[1] = molecular target: GDP-bound NRAS wild-type protein (Homo sapiens, UniProt P01111); assay: Binding to NRAS by surface plasmon resonance (SPR), Single Cycle Kinetics; settings: SPR; for NRAS/KRAS (ratio of KD value with respect to NRAS to KD value with respect to KRAS): GDP-bound NRAS wild-type vs GDP-bound KRAS wild-type; for NRAS/KRAS (ratio of KD value for GDP-bound NRAS wild-type protein to KD value for KRAS): KD ratio class
[2] = molecular target: GDP-bound HRAS wild-type protein (Homo sapiens, UniProt P01112); assay: Binding to HRAS by surface plasmon resonance (SPR), Single Cycle Kinetics; settings: SPR; for HRAS/KRAS (ratio of KD value with respect to HRAS to KD value with respect to KRAS): GDP-bound HRAS wild-type vs GDP-bound KRAS wild-type; for HRAS/KRAS (ratio of KD value for GDP-bound HRAS wild-type protein to KD value for KRAS): KD ratio class
Sequence of GDP-bound HRAS wild-type protein (P01112 whole entry): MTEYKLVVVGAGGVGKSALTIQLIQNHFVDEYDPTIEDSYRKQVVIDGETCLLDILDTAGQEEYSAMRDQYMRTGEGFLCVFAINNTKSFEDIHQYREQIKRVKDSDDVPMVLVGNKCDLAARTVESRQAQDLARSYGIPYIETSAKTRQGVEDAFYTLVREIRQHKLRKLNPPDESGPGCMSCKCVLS

Sequence of GDP-bound NRAS wild-type protein (P01111 whole entry): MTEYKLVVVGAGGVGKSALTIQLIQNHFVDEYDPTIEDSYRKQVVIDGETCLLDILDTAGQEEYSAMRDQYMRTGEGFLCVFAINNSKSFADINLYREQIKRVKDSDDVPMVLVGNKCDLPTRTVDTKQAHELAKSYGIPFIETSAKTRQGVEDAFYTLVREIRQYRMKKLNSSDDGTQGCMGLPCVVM

## CCOC[C@H]1C(=O)N[C@@H]([C@@H](C)CC)C(=O)N(C)CC(=O)N(C)[C@H]2C/C=C\CCN(C2=O)[C@@H](CC2CCC(F)(F)CC2)C(=O)N(C)CC(=O)N[C@@H](CCc2ccc(C(F)(F)F)c(Cl)c2)C(=O)N2C[C@@H](C)C[C@H]2C(=O)NC2(CC(C)(C)C2)C(=O)N(C)[C@@H](C(CC)CC)C(=O)N(C)[C@H](C(=O)N(C)C)CC(=O)N1C [PP2475]
[1]
  NRAS/KRAS (ratio of KD value with respect to NRAS to KD value with respect to KRAS): AA (a compound having 20 or more is denoted as AA)
[2]
  HRAS/KRAS (ratio of KD value with respect to HRAS to KD value with respect to KRAS): A (a compound having 10 or more and less than 20 is denoted as A)

## CCO[C@@H]1C[C@H]2C(=O)NC3(CCC3)C(=O)N(C)[C@@H](C3CCCC3)C(=O)N(C)[C@H](C(=O)N(C)C)CC(=O)N(C)[C@@H](Cc3ccc(C#N)cc3)C(=O)N[C@@H]([C@@H](C)CC)C(=O)N(C)CC(=O)N(C)[C@H]3CCCCCN(C3=O)[C@@H](Cc3ccc(C(F)(F)F)cc3)C(=O)N(C)CC(=O)N[C@@H](CCc3cc(F)c(C(F)(F)F)c(F)c3)C(=O)N2C1 [PP1173]
[1]; KD ratio
  NRAS/KRAS (ratio of KD value with respect to NRAS to KD value with respect to KRAS): B (a compound having 3 or more and less than 10 is denoted as B)
[2]; KD ratio
  HRAS/KRAS (ratio of KD value with respect to HRAS to KD value with respect to KRAS): B (a compound having 3 or more and less than 10 is denoted as B)

## CCO[C@@H]1C[C@H]2C(=O)NC3(CCC3)C(=O)N(C)[C@@H](C3CCCC3)C(=O)N(C)[C@H](C(=O)N(C)CC)CC(=O)N(C)[C@@H](CC3CC3)C(=O)N[C@@H]([C@@H](C)CC)C(=O)N(C)CC(=O)N(C)[C@H]3C/C=C\CCN(C3=O)[C@@H](Cc3ccc(C(F)(F)F)cc3)C(=O)N(C)CC(=O)N[C@@H](CCc3cc(F)c(C(F)(F)F)c(F)c3)C(=O)N2C1 [PP1301]
[1]
  NRAS/KRAS (ratio of KD value for GDP-bound NRAS wild-type protein to KD value for KRAS): A (a compound having 10 or more and less than 20 is denoted as A)
[2]
  HRAS/KRAS (ratio of KD value for GDP-bound HRAS wild-type protein to KD value for KRAS): A (a compound having 10 or more and less than 20 is denoted as A)

## CCO[C@@H]1C[C@H]2C(=O)NC3(CCC3)C(=O)N(C)[C@@H](C3CCCC3)C(=O)N(C)[C@H](C(=O)N(C)CCOC)CC(=O)N(C)[C@@H](CC)C(=O)N[C@@H]([C@@H](C)CC)C(=O)N(C)CC(=O)N(C)[C@H]3C/C=C\CCN(C3=O)[C@@H](Cc3ccc(C(F)(F)F)cc3)C(=O)N(C)CC(=O)N[C@@H](CCc3cc(F)c(C(F)(F)F)c(F)c3)C(=O)N2C1 [PP1316]
[1]
  NRAS/KRAS (ratio of KD value for GDP-bound NRAS wild-type protein to KD value for KRAS): A (a compound having 10 or more and less than 20 is denoted as A)
[2]
  HRAS/KRAS (ratio of KD value for GDP-bound HRAS wild-type protein to KD value for KRAS): A (a compound having 10 or more and less than 20 is denoted as A)

## CCO[C@@H]1C[C@H]2C(=O)NC3(CCC3)C(=O)N(C)[C@@H](C3CCCC3)C(=O)N(C)[C@H](C(=O)N(C)C)CC(=O)N(C)[C@@H](CC)C(=O)N[C@@H]([C@@H](C)CC)C(=O)N(C)CC(=O)N(C)[C@H]3CC/C=C(/C)CN(C3=O)[C@@H](Cc3ccc(C(F)(F)F)cc3)C(=O)N(C)CC(=O)N[C@@H](CCc3cc(F)c(C(F)(F)F)c(F)c3)C(=O)N2C1 [PP1334]
[1]
  NRAS/KRAS (ratio of KD value for GDP-bound NRAS wild-type protein to KD value for KRAS): B (a compound having 3 or more and less than 10 is denoted as B)
[2]
  HRAS/KRAS (ratio of KD value for GDP-bound HRAS wild-type protein to KD value for KRAS): B (a compound having 3 or more and less than 10 is denoted as B)

## CCCN1C(=O)[C@@H]2CCN2C(=O)CN(C)C(=O)[C@H]([C@@H](C)CC)NC(=O)[C@H](CC(C)C)N(C)C(=O)C[C@@H](C(=O)N2CCOCC2)N(C)C(=O)[C@H](C2CCCC2)N(C)C(=O)[C@](C)(COC(C)(C)C)NC(=O)[C@@H]2CCCN2C(=O)[C@H](CCc2cc(F)c(C(F)(F)F)c(F)c2)NC(=O)CN(C)C(=O)[C@@H]1Cc1ccc(C(F)(F)F)cc1 [PP0800] ([NMeL]I[Sar][Aze][NPrPhe(4-CF3)][Sar][hPhe(3,5-F2-4-CF3)]P[αMeS](tBu)[NMeGly(cPent)][NMeD]-Morpholide; lactam N-11)
[1]
  NRAS/KRAS (ratio of KD value with respect to GDP-bound NRAS wild-type protein to KD value with respect to KRAS): C (A compound having a KD ratio of 0.1 or more and less than 3 is denoted as C)
[2]
  HRAS/KRAS (ratio of KD value with respect to GDP-bound HRAS wild-type protein to KD value with respect to KRAS): B (a compound having 3 or more and less than 10 is denoted as B)

## CC[C@H](C)[C@@H]1NC(=O)[C@@H]2CCCCCCc3ccc(cc3)C[C@@H](C(=O)N(C)CC(=O)N[C@@H](CCc3ccc(C(F)(F)F)c(OC)c3)C(=O)N3C[C@H](OC(C)C)C[C@H]3C(=O)NC3(CC(C)(C)C3)C(=O)N(C)[C@@H](C3CCCC3)C(=O)N(C)[C@H](C(=O)N(C)C)CC(=O)N2C)N2CC/C=C\C[C@@H](C2=O)N(C)C(=O)CN(C)C1=O [PP3067]
[1]; GDP-bound wild-type proteins
  NRAS/KRAS (ratio of KD value with respect to GDP-bound NRAS wild-type protein to KD value with respect to KRAS): A (a compound having 10 or more and less than 20 is denoted as A)
[2]; GDP-bound wild-type proteins
  HRAS/KRAS (ratio of KD value with respect to GDP-bound HRAS wild-type protein to KD value with respect to KRAS): B (a compound having 3 or more and less than 10 is denoted as B)
